Assay results from PMC4775402 (Pharmacological research, 2016).
Where a name gives a salt, the structure may show the parent alone.

Assays:
WT C3AR1 = WT C3AR1 (Homo sapiens, UniProt Q16581); experiment: Label-free DMR agonist response, HEK293T expressing WT C3AR1; assay type: cell-based
ΔPDZ C3AR1 = ΔPDZ C3AR1 (Homo sapiens, UniProt Q16581); experiment: Label-free DMR agonist response, HEK293T expressing ΔPDZ C3AR1; assay type: cell-based
WT HRH3 = WT HRH3 (Homo sapiens, UniProt Q9Y5N1); settings: HEK293T
WT HRH3, sequence (Q9Y5N1 1-453 isoform Q9Y5N1-2): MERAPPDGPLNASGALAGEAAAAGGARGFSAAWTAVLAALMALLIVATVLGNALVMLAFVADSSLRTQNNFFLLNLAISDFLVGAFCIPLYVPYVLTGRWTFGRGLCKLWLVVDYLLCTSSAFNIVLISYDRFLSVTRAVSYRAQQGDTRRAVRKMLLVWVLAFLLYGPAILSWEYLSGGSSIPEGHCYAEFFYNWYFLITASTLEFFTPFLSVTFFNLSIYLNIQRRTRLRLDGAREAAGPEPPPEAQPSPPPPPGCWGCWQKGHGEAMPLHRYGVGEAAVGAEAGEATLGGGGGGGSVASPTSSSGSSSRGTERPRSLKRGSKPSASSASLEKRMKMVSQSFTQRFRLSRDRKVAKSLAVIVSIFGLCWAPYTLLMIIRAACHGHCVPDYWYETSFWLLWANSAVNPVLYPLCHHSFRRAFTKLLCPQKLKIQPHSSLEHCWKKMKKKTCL

ΔPDZ HRH3 = ΔPDZ HRH3 (Homo sapiens, UniProt Q9Y5N1); settings: HEK293T
ΔPDZ HRH3, sequence (Q9Y5N1 1-449 isoform Q9Y5N1-2): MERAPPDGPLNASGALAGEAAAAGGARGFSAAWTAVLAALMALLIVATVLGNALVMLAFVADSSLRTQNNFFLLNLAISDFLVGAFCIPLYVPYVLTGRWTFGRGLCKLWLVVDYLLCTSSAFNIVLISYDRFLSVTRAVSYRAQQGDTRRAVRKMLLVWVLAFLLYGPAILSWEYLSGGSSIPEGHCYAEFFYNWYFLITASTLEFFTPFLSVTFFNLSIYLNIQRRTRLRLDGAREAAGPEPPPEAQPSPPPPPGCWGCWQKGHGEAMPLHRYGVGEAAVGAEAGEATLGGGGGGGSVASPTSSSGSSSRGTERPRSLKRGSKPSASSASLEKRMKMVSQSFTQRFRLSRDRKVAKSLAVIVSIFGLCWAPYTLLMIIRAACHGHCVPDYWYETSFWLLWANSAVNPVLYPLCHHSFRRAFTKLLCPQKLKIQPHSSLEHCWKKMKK

ΔPDZ S1PR2 = ΔPDZ S1PR2 (Homo sapiens, UniProt O95136); experiment: Label-free DMR agonist response, HEK293T expressing ΔPDZ S1PR2; assay type: cell-based
ΔPDZ S1PR2, sequence (O95136 1-349 limits assumed, stated change not applied): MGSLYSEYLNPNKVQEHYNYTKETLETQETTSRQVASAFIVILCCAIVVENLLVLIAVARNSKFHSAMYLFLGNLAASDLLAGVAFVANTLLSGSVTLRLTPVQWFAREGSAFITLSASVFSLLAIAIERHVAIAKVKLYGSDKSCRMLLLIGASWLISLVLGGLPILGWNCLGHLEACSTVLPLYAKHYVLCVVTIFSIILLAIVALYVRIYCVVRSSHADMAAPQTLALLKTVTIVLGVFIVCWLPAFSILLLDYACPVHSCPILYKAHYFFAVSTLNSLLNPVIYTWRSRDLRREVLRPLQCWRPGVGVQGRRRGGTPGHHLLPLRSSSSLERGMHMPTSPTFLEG

WT S1PR2 = WT S1PR2 (Homo sapiens, UniProt O95136); experiment: Label-free DMR agonist response, HEK293T expressing WT S1PR2; assay type: cell-based
WT S1PR2, sequence (O95136 whole entry): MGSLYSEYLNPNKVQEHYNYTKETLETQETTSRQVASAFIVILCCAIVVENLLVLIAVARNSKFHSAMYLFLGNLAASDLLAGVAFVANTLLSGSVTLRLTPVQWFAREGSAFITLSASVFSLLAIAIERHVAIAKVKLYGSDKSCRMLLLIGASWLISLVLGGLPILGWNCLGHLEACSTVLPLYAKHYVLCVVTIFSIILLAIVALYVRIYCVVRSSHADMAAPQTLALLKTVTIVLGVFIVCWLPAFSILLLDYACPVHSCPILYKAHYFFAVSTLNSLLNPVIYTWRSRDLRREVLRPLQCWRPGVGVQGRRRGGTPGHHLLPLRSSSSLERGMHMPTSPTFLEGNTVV

WT C3AR1, sequence (Q16581 whole entry): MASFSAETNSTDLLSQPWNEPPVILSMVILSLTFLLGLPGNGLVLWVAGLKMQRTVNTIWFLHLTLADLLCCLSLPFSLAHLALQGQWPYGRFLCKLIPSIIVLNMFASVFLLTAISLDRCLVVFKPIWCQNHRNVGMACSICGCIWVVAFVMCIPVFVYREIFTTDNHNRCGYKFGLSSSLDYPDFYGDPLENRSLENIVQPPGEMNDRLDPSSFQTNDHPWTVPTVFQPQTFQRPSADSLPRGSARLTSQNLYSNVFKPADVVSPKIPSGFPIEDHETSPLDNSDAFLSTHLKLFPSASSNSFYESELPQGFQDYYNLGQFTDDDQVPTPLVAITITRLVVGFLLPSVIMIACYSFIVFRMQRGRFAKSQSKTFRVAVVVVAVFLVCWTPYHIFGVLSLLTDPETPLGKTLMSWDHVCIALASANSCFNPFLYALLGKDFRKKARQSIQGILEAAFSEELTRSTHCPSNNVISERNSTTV
ΔPDZ C3AR1, sequence (Q16581 1-478 limits assumed, stated change not applied): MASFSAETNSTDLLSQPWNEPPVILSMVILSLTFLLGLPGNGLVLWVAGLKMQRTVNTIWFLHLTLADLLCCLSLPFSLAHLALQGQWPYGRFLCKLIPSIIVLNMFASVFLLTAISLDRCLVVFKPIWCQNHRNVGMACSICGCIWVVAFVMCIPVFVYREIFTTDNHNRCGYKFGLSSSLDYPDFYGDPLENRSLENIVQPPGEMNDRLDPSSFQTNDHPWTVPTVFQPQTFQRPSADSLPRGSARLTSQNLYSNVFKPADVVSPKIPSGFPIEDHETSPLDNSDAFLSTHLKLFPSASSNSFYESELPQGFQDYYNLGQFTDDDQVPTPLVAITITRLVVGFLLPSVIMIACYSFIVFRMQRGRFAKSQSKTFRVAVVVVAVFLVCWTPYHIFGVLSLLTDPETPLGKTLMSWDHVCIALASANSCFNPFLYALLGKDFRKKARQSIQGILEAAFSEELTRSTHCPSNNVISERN

`NC(=O)Cc1ccccc1` [Benzeneacetamide, benzeneacetamide] was tested, and the “WT Max (DMR)” value (WT C3AR1; WT C3AR1, maximal agonist DMR response) was 36.90 ± 1.82, the “WT TTP” value (WT C3AR1; WT C3AR1, time to peak DMR) was 4.50 s and the “ΔPDZ Max (DMR)” value (ΔPDZ C3AR1; ΔPDZ C3AR1, maximal agonist DMR response) was 38.77 ± 2.59. For the same compound, the “ΔPDZ TTP” value (ΔPDZ C3AR1; ΔPDZ C3AR1, time to peak DMR) was 3.50 s.

In the case of `NCCc1c[nH]cn1` [Histamine, histamine dihydrochloride], the “WT Max (DMR)” value (WT HRH3; WT HRH3, maximal agonist DMR response) is reported as 46.97 ± 3.71, the “WT TTP” value (WT HRH3; WT HRH3, time to peak DMR) is reported as 7.30 s and the “ΔPDZ Max (DMR)” value (ΔPDZ HRH3; ΔPDZ HRH3, maximal agonist DMR response) is reported as 60.19 ± 5.07. The “ΔPDZ TTP” value (ΔPDZ HRH3; ΔPDZ HRH3, time to peak DMR) was 6.30 s.

For `CCCCCCCCCCCCC/C=C/[C@@H](O)[C@@H](N)COP(=O)(O)O` [Sphingosine-1-phosphate, sphingosine-1-phosphate], the “ΔPDZ Max (DMR)” value (ΔPDZ S1PR2; ΔPDZ S1PR2, maximal agonist DMR response) was −10.16 ± 4.91, the “ΔPDZ TTP” value (ΔPDZ S1PR2; ΔPDZ S1PR2, time to peak DMR) was 16.31 s and the “WT Max (DMR)” value (WT S1PR2; WT S1PR2, maximal agonist DMR response) was −40.54 ± 3.76. For the same compound, the “WT TTP” value (WT S1PR2; WT S1PR2, time to peak DMR) was 17.61 s.
